Assay results published in ChEMBL document CHEMBL4196127, “Discovery of AM-6226: A Potent and Orally Bioavailable GPR40 Full Agonist That Displays Efficacy in Nonhuman Primates” (ACS Med Chem Lett, 2018).
Values belong to the molecule of their own block, whether it stands above or below them.

Tests used:
[1] = test system: Cynomolgus monkey; assay: Antidiabetic activity in prediabetic high fat feed cynomolgus monkey assessed as reduction in plasma glucose AUC at 10 mg/kg, po administered via gavage 2 hrs prior to glucose challenge by oral glucose tolerance test; format: functional, Macaca fascicularis; parameters: scale not given: the % may be the effect or the level left
[2] = test system: Rattus norvegicus; assay: Volume of distribution at steady state in rat at 0.5 mg/kg, iv; conditions: in vivo
[3] = (§1) AUC in rat at 2 mg/kg, po; format: ADME, organism-based; conditions: in vivo
[4] = target: T1, Free fatty acid receptor 1 (Homo sapiens, UniProt O14842); assay: Agonist activity at GPR40 (unknown origin) expressed in CHO cells incubated for 2 hrs measured over 20 secs in presence of human serum albumin by aequorin based luminescence assay; format: functional, cell-based
T1 sequence (O14842 whole entry): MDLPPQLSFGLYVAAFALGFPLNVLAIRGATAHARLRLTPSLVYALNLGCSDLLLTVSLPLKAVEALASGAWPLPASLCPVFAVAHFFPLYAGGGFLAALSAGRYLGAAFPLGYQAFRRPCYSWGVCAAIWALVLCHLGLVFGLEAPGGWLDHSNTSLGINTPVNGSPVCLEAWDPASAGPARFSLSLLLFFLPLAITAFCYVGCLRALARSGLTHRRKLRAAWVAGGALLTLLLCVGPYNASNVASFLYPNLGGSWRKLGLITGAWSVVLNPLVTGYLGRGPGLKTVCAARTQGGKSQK

[5] = Oral bioavailability in rat at 2 mg/kg; format: ADME, organism-based; conditions: in vivo
[6] = Fraction unbound in rat plasma at 0.5 mg/kg, iv or 2 mg/kg, po; format: ADME, organism-based
[7] = Half life in rat at 0.5 mg/kg, iv; format: ADME, organism-based; conditions: in vivo
[8] = target: T1, Free fatty acid receptor 1; assay: Agonist activity at GPR40 (unknown origin) expressed in CHO cells incubated for 2 hrs measured over 20 secs in presence of human serum albumin by aequorin based luminescence assay relative to AM-1638; format: functional, cell-based
[9] = Clearance in rat at 0.5 mg/kg, iv; conditions: in vivo
[10] = Cmax in rat at 2 mg/kg, po; format: ADME, organism-based; parameters: dose 2 mg/kg, route oral; conditions: in vivo
[11] = AUC in cynomolgus monkey at 10 mg/kg, po; format: ADME, organism-based, Macaca fascicularis; conditions: in vivo
[12] = test system: Rattus norvegicus; assay: as §1; format: ADME, organism-based; conditions: in vivo
[13] = test system: Cynomolgus monkey; assay: Volume of distribution at steady state in cynomolgus monkey at […]; format: ADME, organism-based, Macaca fascicularis; conditions: in vivo
[14] = Clearance in cynomolgus monkey at 0.5 mg/kg, iv; conditions: in vivo
[15] = Oral bioavailability in cynomolgus monkey at 10 mg/kg; format: ADME, organism-based, Macaca fascicularis; conditions: in vivo
[16] = Fraction unbound in cynomolgus monkey plasma at 0.5 mg/kg, iv; format: ADME, organism-based, Macaca fascicularis
[17] = test system: Rattus norvegicus; assay: Clearance in rat at 0.5 mg/kg, iv; conditions: in vivo
[18] = Oral bioavailability in dog at 2 mg/kg; format: ADME, organism-based, Canis lupus familiaris; conditions: in vivo
[19] = test system: Canis familiaris; assay: Volume of distribution at steady state in dog at […]; format: ADME, organism-based, Canis lupus familiaris; conditions: in vivo
[20] = Half life in cynomolgus monkey at 0.5 mg/kg, iv; format: ADME, organism-based, Macaca fascicularis; conditions: in vivo
[21] = Fraction unbound in dog plasma at 0.5 mg/kg, iv; format: ADME, organism-based, Canis lupus familiaris
[22] = Clearance in dog at 0.5 mg/kg, iv; conditions: in vivo
[23] = Half life in dog at 0.5 mg/kg, iv; format: ADME, organism-based, Canis lupus familiaris; conditions: in vivo
[24] = AUC in dog at 2 mg/kg, po; format: ADME, organism-based, Canis lupus familiaris; conditions: in vivo

SMILES: N[C@@H](CC(=O)N1CCn2c(nnc2C(F)(F)F)C1)Cc1cc(F)c(F)cc1F [SITAGLIPTIN]
Activity [1]: 13%

SMILES: CC[C@H](CC(=O)O)c1cc(OCc2ccc(-c3cc(OC)ccc3F)c([C@@H]3CCCC3(C)C)c2)ccc1F
EC50 [4]: 210 nM | Efficacy [8]: 100%

SMILES: CC[C@H](CC(=O)O)c1ccc(F)c(OCc2ccc(-c3cc(OC)ccc3F)c(C3=CCCC3(C)C)c2)c1
EC50 [4]: 740 nM | Efficacy [8]: 82%

SMILES: CC[C@@H](CC(=O)O)c1cccc(OCc2ccc(-c3cc(OC)ccc3F)c([C@@H]3CCCC3(C)C)c2)c1
EC50 [4]: 1960 nM | Efficacy [8]: 76%

SMILES: COc1ccc(F)c(-c2ccc(COc3cccc([C@@H](CC(=O)O)C4CC4)c3)cc2C2=CCCC2(C)C)c1
Vdss [2]: 1.1 L/kg | AUC [11]: 18.8 µM·h | AUC [12]: 15.1 µM·h | Vdss [13]: 2 L/kg | fraction unbound [6]: 0.01 | clearance [14]: 13.5 mL/min/kg | bioavailability [15]: 71% | fraction unbound [16]: 0.012 | Efficacy [8]: 100% | CL [17]: 15.2 mL/min/kg

SMILES: COc1ccc(F)c(-c2ccc(COc3cccc([C@H](CC(=O)O)C4CC4)c3)cc2[C@@H]2CCCC2(C)C)c1
EC50 [4]: 1830 nM | Efficacy [8]: 89%

SMILES: CC[C@H](CC(=O)O)c1cccc(OCc2ccc(-c3cc(OC)ccc3F)c(C3CCCC3(C)C)c2)c1F (single isomer, unassigned)
Vdss [2]: 0.81 L/kg | bioavailability [18]: 62% | AUC [11]: 80.4 µM·h | AUC [3]: 8.22 µM·h | EC50 [4]: 120 nM | bioavailability [5]: 72% | Vdss [13]: 0.5 L/kg | Activity [1]: 18% | Vdss [19]: 0.68 L/kg | fraction unbound [6]: 0.003 | clearance [14]: 3.67 mL/min/kg | bioavailability [15]: 91% | half-life [7]: 2 h | fraction unbound [16]: 0.017 | half-life [20]: 3.3 h | fraction unbound [21]: 0.034 | clearance [22]: 3.5 mL/min/kg | Efficacy [8]: 104% | clearance [9]: 5.5 mL/min/kg | half-life [23]: 4.1 h | Cmax [10]: 1180 nM | AUC [24]: 11.6 µM·h

SMILES: COc1ccc(F)c(-c2ccc(COc3cccc(CCC(=O)O)c3)cc2[C@@H]2CCCC2(C)C)c1
EC50 [4]: 450 nM | Efficacy [8]: 120%

SMILES: COc1ccc(F)c(-c2ccc(COc3cccc([C@H](C)CC(=O)O)c3)cc2[C@@H]2CCCC2(C)C)c1
EC50 [4]: 170 nM | Efficacy [8]: 106%

SMILES: COc1ccc(F)c(-c2ccc(COc3cccc([C@@H](CC(=O)O)C4CC4)c3)cc2C2CCCC2(C)C)c1 (mixture of isomers)
EC50 [4]: 140 nM | Efficacy [8]: 97%

SMILES: COc1ccc(F)c(-c2ccc(COc3cccc([C@@H](CC(=O)O)C4CC4)c3)cc2[C@H]2CCCC2(C)C)c1
EC50 [4]: 310 nM | Efficacy [8]: 100%

SMILES: CCC[C@H](CC(=O)O)c1cccc(OCc2ccc(-c3cc(OC)ccc3F)c([C@@H]3CCCC3(C)C)c2)c1
EC50 [4]: 110 nM | Efficacy [8]: 100%

Continued, values first:

Vdss [2]: 1.9 L/kg | AUC [3]: 2.43 µM·h | EC50 [4]: 100 nM | bioavailability [5]: 32% | fraction unbound [6]: 0.003 | half-life [7]: 3.3 h | Efficacy [8]: 100% | clearance [9]: 8.17 mL/min/kg | Cmax [10]: 360 nM
SMILES: COc1ccc(F)c(-c2ccc(COc3cccc([C@@H](CC(=O)O)C4CC4)c3F)cc2[C@@H]2CCCC2(C)C)c1

EC50 [4]: 90 nM | Efficacy [8]: 100%
SMILES: COc1ccc(F)c(-c2ccc(COc3cccc([C@@H](CC(=O)O)C4CCC4)c3)cc2[C@@H]2CCCC2(C)C)c1

Vdss [2]: 1.68 L/kg | AUC [3]: 1.83 µM·h | EC50 [4]: 80 nM | fraction unbound [6]: 0.006 | Efficacy [8]: 101% | clearance [9]: 12 mL/min/kg | Cmax [10]: 250 nM
SMILES: COc1ccc(F)c(-c2ccc(COc3cccc([C@@H](CC(=O)O)C4CC4)c3)cc2[C@@H]2CCCC2(C)C)c1

EC50 [4]: 90 nM | Efficacy [8]: 105%
SMILES: CC[C@H](CC(=O)O)c1cc(F)cc(OCc2ccc(-c3cc(OC)ccc3F)c([C@@H]3CCCC3(C)C)c2)c1

Vdss [2]: 1.12 L/kg | AUC [3]: 1.74 µM·h | EC50 [4]: 80 nM | bioavailability [5]: 29% | fraction unbound [6]: 0.006 | half-life [7]: 2.1 h | Efficacy [8]: 102% | clearance [9]: 11.2 mL/min/kg | Cmax [10]: 370 nM
SMILES: CC[C@H](CC(=O)O)c1cccc(OCc2ccc(-c3cc(OC)ccc3F)c([C@@H]3CCCC3(C)C)c2)c1

EC50 [4]: 100 nM | Efficacy [8]: 98%
SMILES: COc1ccc(F)c(-c2ccc(COc3cccc([C@@H](CC(=O)O)CC4CC4)c3)cc2[C@@H]2CCCC2(C)C)c1
